# Test results reported in ChEMBL document CHEMBL1140882, “Pestalofones A-E, bioactive cyclohexanone derivatives from the plant endophytic fungus Pestalotiopsis fici” (Bioorg Med Chem, 2009).
# Where a name gives a salt, the structure may show the parent alone.
# How the values were obtained:
# Aspergillus fumigatus = assay: Antimicrobial activity against Aspergillus fumigatus ATCC 10894; type: functional, organism-based
# [1] = system: Human immunodeficiency virus 1; assay: Antiviral activity against HIV1 replication in human C8166 cells by ELISA; type: functional, organism-based; settings: Human immunodeficiency virus 1, C8166
# [2] = Cytotoxicity against human C8166 cells after 4 days by MTT assay; type: cell-based
structure (smiles),measurement,setting,value
OC(Cn1cncn1)(Cn1cncn1)c1ccc(F)cc1F [FLUCONAZOLE],IC50,Aspergillus fumigatus,7350 nM
same,MIC,Aspergillus fumigatus,163 µM
CC(C)(C)NC(=O)[C@@H]1CN(Cc2cccnc2)CCN1C[C@@H](O)C[C@@H](Cc1ccccc1)C(=O)N[C@H]1c2ccccc2C[C@H]1O [INDINAVIR SULFATE],EC50,[1],0.00881 µM
CC(C)=C/C=C1\C[C@H](O)[C@@H]2O[C@]2(CC=C(C)C)C1=O [PESTALOFONE A],CC50 at 96 h,[2],> 200 µM
same,EC50,[1],90.4 µM
C=C(C)/C=C1/C(=C2\C[C@H](O)[C@@H]3O[C@]3(CC=C(C)C)[C@@H]2O)C=C(C)C[C@@]12C[C@H](O)[C@@H]1O[C@]1(CC=C(C)C)C2=O [PESTALOFONE B],CC50 at 96 h,[2],> 200 µM
same,EC50,[1],64 µM
C=C(C)/C=C1/C(=C2\C[C@H](O)[C@@H]3O[C@]3(CC=C(C)C)C2=O)C=C(C)C[C@@]12C[C@H](O)[C@@H]1O[C@]1(CC=C(C)C)C2=O [PESTALOFONE C],IC50,Aspergillus fumigatus,1100 nM
same,MIC,Aspergillus fumigatus,35.3 µM
COC(=O)c1cc(OC)cc2oc3c(CC(=O)[C@@]4(O)C[C@H](O)[C@@H]5O[C@]5(CC=C(C)C)[C@@H]4O)c(C)c(CC(C)=O)c(O)c3c(=O)c12 [PESTALOFONE E],IC50,Aspergillus fumigatus,900 nM
same,MIC,Aspergillus fumigatus,31.2 µM
same,CC50 at 96 h,[2],> 200 µM
same,EC50,[1],93.7 µM
